Data taken from patent publication US5563154A, “Tetrahydro-quinolinyl/isoquinolinyl-terminal alkylamino ethynyl alanine amino diol compounds for treatment of hypertension” (G. D. Searle & Co., priority 1995, dated 1996).
Non-standard residues stand in square brackets, D forms with d. Residues, ends and D or L forms follow the SMILES beside them. *: point of attachment. Sta = CC(C)C[C@H](N)[C@@H](O)CC(=O)O; Isovaleryl = CC(C)CC(=O)*

Key:
hog renin = conditions: after the injection of hog renin into nephrectomized rats; cited from earlier work
pepsin = conditions: cited from earlier work
cathepsin D = conditions: cited from earlier work
renin = conditions: cited from earlier work
human renin = biological target: T1, human renin (Homo sapiens, UniProt P00797); experiment: Human Renin Inhibition in vitro (angiotensin I produced, by radioimmunoassay); type: biochemical; conditions: pH 7.4, 37° C., two hours, human plasma
T1 construct: purchased National Institute for Biological Standards, London
T1 sequence (P00797 67-406): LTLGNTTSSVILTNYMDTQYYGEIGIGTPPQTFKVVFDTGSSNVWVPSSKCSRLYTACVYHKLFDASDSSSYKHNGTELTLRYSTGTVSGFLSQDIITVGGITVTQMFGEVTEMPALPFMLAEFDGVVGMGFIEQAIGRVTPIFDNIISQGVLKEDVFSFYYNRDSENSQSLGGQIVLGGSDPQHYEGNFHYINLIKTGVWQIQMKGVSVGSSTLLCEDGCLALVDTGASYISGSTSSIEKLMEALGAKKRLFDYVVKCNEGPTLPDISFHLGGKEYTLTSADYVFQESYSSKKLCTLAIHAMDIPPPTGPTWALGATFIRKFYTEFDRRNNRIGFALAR
Description: Compounds of Formula I were evaluated as inhibitors of human renin in an in vitro assay, as follows: This human renin inhibition test has been previously described in detail [Papaioannou et al., Clinical and Experimental Hypertension, A7(9), 1243-1257 (1985)]. Human renin was obtained from the National Institute for Biological Standards, London. An incubation mixture was prepared containing the following components: in a total volume of 0.25 mL: 100 mM Tris-acetate buffer at pH 7.4, 25×10^-6 Goldblatt units of renin, 0.05 mL of plasma from human volunteers taking oral contraceptives, 6.0 mM Na-EDTA, 2.4 mM phenylmethyl sulfonyl fluoride, 1.5 mM 8-hydroxyquinoline, 0.4 mg/mL bovine serum albumin (BSA), and 0.024 mg/mL neomycin sulfate. This mixture was incubated for two hours at 37° C. in the presence or absence of renin inhibitors. The produced angiotensin I was determined by radioimmunoassay (New England Nuclear kit). Test compounds to be assayed were dissolved in DMSO and diluted with 100mM Tris-acetate buffer at pH 7.4 containing 0.5% BSA to the appropriate concentration. The final concentration of organic solvent in the reaction mixture was less than 1%. Control incubations at 37° C. were used to correct for effects of organic solvent on renin activity.

| IC50 (human renin) [nM] | Compound | reduce blood pressure in vivo (hog renin) | inhibitor of pepsin (pepsin) | inhibitor of cathepsin D (cathepsin D) | inhibitor of renin (renin) |
| --- | --- | --- | --- | --- | --- |
|  | CC(C)CC(=O)N[C@H](C(=O)N[C@H](C(=O)N[C@@H](CC(C)C)[C@@H](O)CC(=O)N[C@@H](C)C(=O)N[C@@H](CC(C)C)[C@@H](O)CC(=O)O)C(C)C)C(C)C [pepstatin] (Isovaleryl-VV[Sta]A[Sta]-OH) | reduce blood pressure in vivo | inhibitor | inhibitor | inhibitor |
| 0.15 | C#CC[C@H](NC(=O)[C@@H](CC(=O)N(C)CCc1ccccn1)Cc1ccccc1)C(=O)N[C@@H](CC1CCCCC1)[C@@H](O)[C@@H](O)CC(C)C (relative stereo) [Example 1, N^1-[1R*-[[[1S, 1R*- (cyclohexylmethyl)-2S*, 3R*-dihydroxy-5-methylhexyl]amino]carbonyl]-3-butynyl]-N^4-methyl-2S*-(phenylmethyl)-N^4-[2-(2-pyridinyl)ethyl]butanediamide] |  |  |  |  |
